# From US11040981B2, “Pyrrolotriazine compounds and methods of inhibiting TAM kinases” (Syros Pharmaceuticals, Inc., priority 2017, dated 2021)
# Tests used:
# [1] = biological target: T1, MERTK (Homo sapiens, UniProt Q12866); assay: TR-FRET kinase activity assay, MERTK; type: biochemical; conditions: for IC50: TR-FRET activity assay, ATP at Km, 60 minutes, read-out: Mer IC50
# T1 sequence (Q12866 21-999): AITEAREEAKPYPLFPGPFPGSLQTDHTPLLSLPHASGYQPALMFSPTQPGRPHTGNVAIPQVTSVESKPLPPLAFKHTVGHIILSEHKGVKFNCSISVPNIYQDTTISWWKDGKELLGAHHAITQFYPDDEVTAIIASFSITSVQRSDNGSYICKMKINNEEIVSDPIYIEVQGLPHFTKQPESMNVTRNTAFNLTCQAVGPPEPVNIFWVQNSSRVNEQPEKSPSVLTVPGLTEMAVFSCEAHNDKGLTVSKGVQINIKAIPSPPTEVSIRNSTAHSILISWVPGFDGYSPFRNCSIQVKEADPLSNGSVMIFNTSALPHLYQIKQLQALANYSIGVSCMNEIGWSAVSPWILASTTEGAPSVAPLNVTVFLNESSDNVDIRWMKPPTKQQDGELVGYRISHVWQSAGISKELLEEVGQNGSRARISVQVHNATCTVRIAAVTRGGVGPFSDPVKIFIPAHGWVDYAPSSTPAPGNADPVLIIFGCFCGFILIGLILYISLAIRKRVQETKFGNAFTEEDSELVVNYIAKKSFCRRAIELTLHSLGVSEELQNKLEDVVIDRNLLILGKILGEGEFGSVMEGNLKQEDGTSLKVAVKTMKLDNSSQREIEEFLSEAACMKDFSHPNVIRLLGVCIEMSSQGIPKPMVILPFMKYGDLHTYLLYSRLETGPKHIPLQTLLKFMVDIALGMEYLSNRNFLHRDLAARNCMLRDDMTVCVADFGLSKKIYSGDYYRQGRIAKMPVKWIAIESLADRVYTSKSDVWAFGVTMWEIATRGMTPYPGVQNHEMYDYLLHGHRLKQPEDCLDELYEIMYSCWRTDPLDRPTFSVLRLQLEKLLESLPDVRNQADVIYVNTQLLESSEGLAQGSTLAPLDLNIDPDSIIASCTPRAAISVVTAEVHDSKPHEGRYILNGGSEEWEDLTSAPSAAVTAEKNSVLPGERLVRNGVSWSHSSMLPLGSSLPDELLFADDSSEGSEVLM
# How it was run: (§1)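 IC50 reflects the drop in TR-FRET between Eu anti-phosphotyrosine antibody and labelled peptide after a 60-minute room-temperature reaction. Buffer was 50 mM HEPES pH 7.5 with 10 mM MgCl2, 1 mM EGTA, 0.01% Brij 35 and 1 mM DTT, with ATP at Km per enzyme and EDTA quench.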
# [2] = biological target: T2, TYRO3 (Homo sapiens, UniProt Q06418); assay: TR-FRET kinase activity assay, TYRO3; type: biochemical; conditions: ATP at Km, 60 minutes
# T2 sequence (Q06418 41-890): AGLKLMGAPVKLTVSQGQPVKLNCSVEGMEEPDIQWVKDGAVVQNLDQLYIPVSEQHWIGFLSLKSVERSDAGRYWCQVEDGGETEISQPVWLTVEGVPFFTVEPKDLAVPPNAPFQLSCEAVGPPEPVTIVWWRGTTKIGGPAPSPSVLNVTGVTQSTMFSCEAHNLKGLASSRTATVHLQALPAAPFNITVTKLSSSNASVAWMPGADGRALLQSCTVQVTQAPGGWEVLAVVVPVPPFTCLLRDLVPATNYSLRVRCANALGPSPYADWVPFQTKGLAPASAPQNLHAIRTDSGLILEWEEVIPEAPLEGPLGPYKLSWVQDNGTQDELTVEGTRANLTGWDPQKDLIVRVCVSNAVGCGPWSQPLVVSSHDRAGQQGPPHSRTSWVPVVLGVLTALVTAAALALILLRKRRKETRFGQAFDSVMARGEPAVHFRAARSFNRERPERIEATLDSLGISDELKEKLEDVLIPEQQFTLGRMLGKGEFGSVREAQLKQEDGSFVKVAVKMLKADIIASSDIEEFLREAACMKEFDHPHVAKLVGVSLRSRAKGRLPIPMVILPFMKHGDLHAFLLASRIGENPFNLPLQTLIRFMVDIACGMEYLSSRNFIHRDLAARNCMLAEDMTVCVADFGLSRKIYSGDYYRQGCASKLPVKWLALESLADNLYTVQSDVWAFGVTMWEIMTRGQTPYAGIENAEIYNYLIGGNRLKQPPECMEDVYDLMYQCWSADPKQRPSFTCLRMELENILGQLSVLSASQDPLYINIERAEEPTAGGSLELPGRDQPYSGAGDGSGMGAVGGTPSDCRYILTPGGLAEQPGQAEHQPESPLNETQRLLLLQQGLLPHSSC
# How it was run: as §1
# [3] = ratio calculated as FLT3 IC50/Mer IC50
# [4] = ratio of Mer to FLT3: FLT3 IC50/Mer IC50
structure (smiles),measurement,setting,value
C[C@@H](COC(F)F)Nc1ncc2c(-c3ccnc(N4CCOC(C(C)(C)O)C4)c3)cc([C@H]3CC[C@H](O)CC3)n2n1 (stereo partly drawn) [Compound 598],IC50,[1],≤ 100 nM
same,FLT3/Mer ratio (FLT3 IC50/Mer IC50),[1]; [3],+++ (“+++” represents a ratio of >100)
same,IC50,[2],≤ 100 nM
CC(CC#N)Nc1ncc2c(-c3ccc(CN4CCN(C)CC4)cc3)cc(C3CCC(O)CC3)n2n1 (stereo not drawn) [Compound 145],IC50,[1],≤ 100 nM
same,FLT3/Mer ratio (FLT3 IC50/Mer IC50),[1]; [4],++ (“++” represents a ratio of between 10 and 100)
same,IC50,[2],≤ 100 nM
COC[C@H](C)Nc1ncc2c(-c3cnn(C4COC4)c3)cc([C@H]3CC[C@H](O)C(F)(F)C3)n2n1 [Compound 614],IC50,[1],≤ 100 nM
same,FLT3/Mer ratio (FLT3 IC50/Mer IC50),[1]; [3],+++ (“+++” represents a ratio of >100)
same,IC50,[2],≤ 100 nM
COCCC(C)Nc1ncc2c(-c3ccc(CN4CCCC4)cc3)cc(C3CCC(O)CC3)n2n1 (stereo not drawn) [Compound 161],IC50,[1],≤ 100 nM
same,FLT3/Mer ratio (FLT3 IC50/Mer IC50),[1]; [4],++ (“++” represents a ratio of between 10 and 100)
same,IC50,[2],≤ 100 nM
C[C@@H](CC(F)(F)F)Nc1ncc2c(-c3cnn(C(C)(C)C(=O)N4CC5(COC5)C4)c3)cc([C@H]3CC[C@H](O)CC3)n2n1 [Compound 608],IC50,[1],≤ 100 nM
same,FLT3/Mer ratio (FLT3 IC50/Mer IC50),[1]; [3],++ (“++” represents a ratio of between 10 and 100)
same,IC50,[2],≤ 100 nM
COC[C@H](C)Nc1ncc2c(-c3ccnc(S(C)(=O)=O)c3)cc(C3CCC(O)CC3)n2n1 (stereo partly drawn) [Compound 627],IC50,[1],≤ 100 nM
same,FLT3/Mer ratio (FLT3 IC50/Mer IC50),[1]; [3],+++ (“+++” represents a ratio of >100)
same,IC50,[2],≤ 100 nM
COCC(C)Nc1ncc2c(-c3ccc(C(C)N4CCOCC4)cc3)cc(C3CCC(O)CC3)n2n1 (mixture of isomers) [Compound 180],IC50,[1],≤ 100 nM
same,FLT3/Mer ratio (FLT3 IC50/Mer IC50),[1]; [4],++ (“++” represents a ratio of between 10 and 100)
same,IC50,[2],≤ 100 nM
C[C@@H](CC(F)(F)F)Nc1ncc2c(-c3cnn(C(C)(C)C(=O)C4COC4)c3)cc([C@H]3CC[C@@](C)(O)CC3)n2n1 [Compound 609],IC50,[1],≤ 100 nM
same,FLT3/Mer ratio (FLT3 IC50/Mer IC50),[1]; [3],++ (“++” represents a ratio of between 10 and 100)
same,IC50,[2],≤ 100 nM
C[C@@H](CC(F)(F)F)Nc1ncc2c(-c3cnn(C(C)(C)C(=O)C4COC4)c3)cc([C@H]3CC[C@](C)(O)CC3)n2n1 [Compound 610],IC50,[1],≤ 100 nM
same,FLT3/Mer ratio (FLT3 IC50/Mer IC50),[1]; [3],++ (“++” represents a ratio of between 10 and 100)
same,IC50,[2],≤ 100 nM
COC[C@H](C)Nc1ncc2c([C@H]3CC[C@@H](C(=O)N4CCN(C)CC4)CC3)cc([C@H]3CC[C@H](O)CC3)n2n1 [Compound 607],IC50,[1],≤ 100 nM
same,FLT3/Mer ratio (FLT3 IC50/Mer IC50),[1]; [3],+++ (“+++” represents a ratio of >100)
same,IC50,[2],≤ 100 nM
"COC[C@H](C)Nc1ncc2c(-c3ccc(CN4CCN(c5nccc(C)n5)CC4)cc3)cc([C@H]3CC[C@H](O)CC3)n2n1 [Compound 154, (trans)-4-(2-(((S)-1-methoxypropan-2-yl)amino)-5-(4-((4-(4-methylpyrimidin-2-yl)piperazin-1-yl)methyl)phenyl)pyrrolo[2,1-f][1,2,4]triazin-7-yl)cyclohexanol]",IC50,[1],≤ 100 nM
same,FLT3/Mer ratio (FLT3 IC50/Mer IC50),[1]; [4],+++ (“+++” represents a ratio of >100)
same,IC50,[2],≤ 100 nM
COC[C@H](C)Nc1ncc2c(-c3cccc(CN4CCCC4)c3)cc([C@H]3CC[C@H](O)CC3)n2n1 [Compound 179],IC50,[1],≤ 100 nM
same,FLT3/Mer ratio (FLT3 IC50/Mer IC50),[1]; [4],+++ (“+++” represents a ratio of >100)
same,IC50,[2],≤ 100 nM
CC[C@]1(O)CC[C@@H](c2cc(-c3cnn(C4COC4)c3)c3cnc(N[C@@H](C)COC)nn32)CC1 [Compound 616],IC50,[1],≤ 100 nM
same,FLT3/Mer ratio (FLT3 IC50/Mer IC50),[1]; [3],+++ (“+++” represents a ratio of >100)
same,IC50,[2],≤ 100 nM
